# Laboratory results from the supplement of paper PMC10307832.
# Assays:
# Experiment in all cases: relative viability (nuclei count vs DMSO), 5 days (fraction); higher = more cells survive
# [1] = compound: CN[C@@H]1C[C@H]2O[C@@](C)([C@@H]1OC)n1c3ccccc3c3c4c(c5c6ccccc6n2c5c31)C(=O)NC4 [Staurosporine] + Cc1nc(NC(=O)N2CCC[C@H]2C(N)=O)sc1-c1ccnc(C(C)(C)C(F)(F)F)c1 [Alpelisib] (partner 2 µM)
# Summary of the method: (§1)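 Values are medians from duplicate plates. Each reflects relative viability, defined as the nuclei count of treated wells over that of vehicle wells. Lung cancer cell lines in 1536-well plates were pin-tool dosed one day after seeding with one drug alone or with a fixed anchor-drug dose plus five library-drug doses (not always all listed) in √10 steps, then fixed, stained and imaged at 4× after 5 days.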
# [2] = compound: CN[C@@H]1C[C@H]2O[C@@](C)([C@@H]1OC)n1c3ccccc3c3c4c(c5c6ccccc6n2c5c31)C(=O)NC4 [Staurosporine] + CC1(C)CCC(c2ccc(Cl)cc2)=C(CN2CCN(c3ccc(C(=O)NS(=O)(=O)c4ccc(N[C@H](CCN5CCOCC5)CSc5ccccc5)c(S(=O)(=O)C(F)(F)F)c4)cc3)CC2)C1 [Navitoclax] (partner 0.5 µM)
# Summary of the method: as §1
# [3] = compound: CN[C@@H]1C[C@H]2O[C@@](C)([C@@H]1OC)n1c3ccccc3c3c4c(c5c6ccccc6n2c5c31)C(=O)NC4 [Staurosporine] + COc1cc2c(Oc3ccc(NC(=O)C4(C(=O)Nc5ccc(F)cc5)CC4)cc3F)ccnc2cc1OCCCN1CCOCC1 [Foretinib] (partner 0.25 µM)
# Summary of the method: as §1
# [4] = compound: O=c1[nH]cc(F)c(=O)[nH]1 [5-Fluorouracil] + CC(=O)Nc1cccc(-n2c(=O)n(C3CC3)c(=O)c3c(Nc4ccc(I)cc4F)n(C)c(=O)c(C)c32)c1 [Trametinib] (partner 0.02 µM)
# Summary of the method: as §1
Cell Line,relative viability ([1]; first compound 0.005 µM),relative viability ([1]; first compound 0.01581 µM),relative viability ([1]; first compound 0.05 µM),relative viability ([1]; first compound 0.1581 µM),relative viability ([1]; first compound 0.5 µM),relative viability ([2]; first compound 0.005 µM),relative viability ([2]; first compound 0.01581 µM),relative viability ([2]; first compound 0.05 µM),relative viability ([2]; first compound 0.1581 µM),relative viability ([2]; first compound 0.5 µM),relative viability ([3]; first compound 0.005 µM),relative viability ([3]; first compound 0.01581 µM),relative viability ([3]; first compound 0.05 µM),relative viability ([3]; first compound 0.1581 µM),relative viability ([3]; first compound 0.5 µM),relative viability ([4]; first compound 0.02 µM),relative viability ([4]; first compound 0.2 µM),relative viability ([4]; first compound 0.6325 µM),relative viability ([4]; first compound 2 µM)
201T,1.03,0.973,0.874,0.715,0.59,1.24,1.18,1.06,0.983,0.761,0.881,0.896,0.518,0.314,0.159,0.715,0.563,0.305,0.284
A549,0.206,0.284,0.0899,0.0462,0.0282,0.616,0.385,0.123,0.0294,0.0297,0.675,0.268,0.297,0.0276,0.0246,–,–,–,–
A-427,1.03,0.889,0.374,0.25,0.143,0.943,0.639,0.254,0.204,–,1.06,0.78,0.282,0.198,0.121,0.747,0.773,0.58,0.382
ABC-1,0.535,0.255,0.168,0.182,0.0986,–,–,–,–,–,0.394,0.367,0.249,0.269,0.151,–,–,–,–
BEN,1.26,–,0.615,0.497,0.286,0.0665,0.0904,0.0865,0.0456,0.042,0.688,0.418,0.248,0.221,0.187,0.934,0.93,0.946,0.938
CAL-12T,0.374,0.146,0.125,0.0823,0.0729,0.285,0.314,0.152,0.13,0.0943,0.523,0.319,0.186,0.168,0.121,0.424,0.393,0.33,0.299
COR-L23,0.204,0.226,0.143,0.0629,0.0497,0.511,0.3,0.17,0.0578,0.0582,0.513,0.459,0.376,0.119,0.0927,0.585,0.631,0.359,0.275
COR-L 105,0.59,0.388,0.236,0.235,0.197,0.573,0.275,0.258,0.272,0.242,0.439,0.389,0.322,0.341,0.231,0.458,0.505,0.408,0.393
Calu-6,0.732,0.612,0.279,0.104,0.0766,0.656,0.321,0.233,0.0847,0.0708,0.75,0.456,0.254,0.0642,0.0391,–,–,–,–
ChaGo-K-1,–,–,–,–,–,0.926,–,0.79,0.29,0.27,0.881,0.528,0.676,0.223,0.188,0.934,0.796,0.691,0.499
EBC-1,0.367,0.307,0.151,0.157,0.145,0.252,0.129,0.118,0.11,0.094,0.107,0.102,0.103,0.0621,0.0633,–,–,–,–
EKVX,0.729,0.409,0.177,0.214,0.122,0.306,0.222,0.254,0.168,0.112,0.355,0.133,0.379,0.246,0.123,0.326,–,0.187,0.148
EMC-BAC-2,0.34,0.23,0.0952,0.131,0.108,1.1,0.777,0.172,0.153,0.127,0.397,0.344,0.252,0.23,0.106,0.934,1.05,0.914,0.879
EPLC-272H,0.977,0.122,0.459,0.156,0.188,1.34,0.463,0.409,0.163,0.19,0.608,0.136,0.174,0.0912,0.121,0.263,0.262,0.242,0.198
H3255,0.612,0.367,0.215,0.174,0.0798,0.172,0.102,0.112,0.0846,0.0541,0.884,0.357,0.292,0.211,0.183,0.664,0.716,0.687,0.567
HARA,0.532,0.173,0.142,0.0954,0.0999,–,0.538,0.37,0.157,0.161,0.77,–,0.327,0.184,0.258,0.852,0.625,0.856,0.644
HCC-15,0.887,–,0.64,0.453,0.262,0.677,–,0.392,0.282,0.183,0.975,–,0.483,0.13,0.107,0.321,0.365,0.34,0.284
HCC-44,0.441,0.167,0.106,0.11,0.0846,0.867,0.28,0.215,0.185,0.13,–,–,–,–,–,1.09,1,0.692,0.599

Cell Line,relative viability ([1]; first compound 0.005 µM),relative viability ([1]; first compound 0.01581 µM),relative viability ([1]; first compound 0.05 µM),relative viability ([1]; first compound 0.1581 µM),relative viability ([1]; first compound 0.5 µM),relative viability ([2]; first compound 0.005 µM),relative viability ([2]; first compound 0.01581 µM),relative viability ([2]; first compound 0.05 µM),relative viability ([2]; first compound 0.1581 µM),relative viability ([2]; first compound 0.5 µM),relative viability ([3]; first compound 0.005 µM),relative viability ([3]; first compound 0.01581 µM),relative viability ([3]; first compound 0.05 µM),relative viability ([3]; first compound 0.1581 µM),relative viability ([3]; first compound 0.5 µM),relative viability ([4]; first compound 0.02 µM),relative viability ([4]; first compound 0.2 µM),relative viability ([4]; first compound 0.6325 µM),relative viability ([4]; first compound 2 µM)
HCC-78,0.394,0.305,0.241,0.281,0.237,0.711,0.563,0.553,0.358,0.206,0.537,0.459,0.429,0.486,–,1.01,0.717,0.435,0.297
HCC-366,0.363,–,0.0965,0.0438,0.0105,1.03,–,0.5,0.0585,0.0142,1.07,–,0.799,0.105,0.303,0.332,0.238,0.14,0.0725
HCC-827,1.1,0.852,0.748,–,0.431,1.06,–,0.768,0.725,0.488,1.06,0.589,0.645,0.381,0.395,0.407,0.544,0.425,0.276
IA-LM,0.577,–,0.281,0.211,0.0757,0.242,–,0.257,0.0433,0.0163,0.423,0.109,0.139,0.1,0.0733,–,–,–,–
LCLC-103H,1.07,0.513,0.365,0.221,0.178,–,–,–,–,–,0.668,0.178,0.171,0.161,0.142,0.733,0.671,0.598,0.566
NCI-H358,0.553,0.222,0.19,0.144,0.161,–,–,–,–,–,0.835,0.241,0.11,0.0647,0.0577,0.17,0.124,0.123,0.137
NCI-H522,–,–,–,–,–,–,–,–,–,–,–,–,–,–,–,0.76,0.681,0.724,0.638
NCI-H650,0.517,0.318,0.306,0.288,0.178,–,–,–,–,–,0.687,0.273,0.257,0.289,0.256,0.914,0.701,0.407,0.341
NCI-H661,0.651,0.313,0.303,0.283,0.251,–,–,–,–,–,1.13,0.571,0.481,0.27,0.216,0.63,0.67,0.481,0.567
NCI-H1299,1.13,0.874,0.237,0.205,0.196,1.06,0.739,0.459,0.239,0.199,0.893,0.352,0.231,0.121,0.132,–,–,–,–
NCI-H1563,0.813,0.57,0.63,0.53,0.489,–,–,–,–,–,0.696,0.612,0.575,0.611,0.463,–,–,–,–
NCI-H1623,–,–,–,–,–,–,–,–,–,–,0.967,0.643,0.925,0.731,0.341,–,–,–,–
NCI-H1648,–,–,–,–,–,–,–,–,–,–,–,–,–,–,–,0.467,0.405,0.466,0.306
NCI-H1650,–,–,–,–,–,0.63,0.493,0.29,0.192,0.116,0.927,0.586,0.201,0.216,0.133,0.745,0.532,0.33,0.254
NCI-H1703,0.219,0.167,0.142,0.139,0.102,0.293,0.207,0.143,0.132,0.0869,0.303,0.246,0.196,0.2,0.156,–,–,–,–
NCI-H1792,0.789,0.499,0.187,0.14,0.117,0.735,0.473,0.197,–,0.136,–,–,–,–,–,0.367,0.278,0.172,0.167
NCI-H2342,–,–,–,–,–,–,–,–,–,–,1.01,0.816,0.486,0.516,0.4,0.932,0.762,0.843,0.662
SW 900,–,–,–,–,–,–,–,–,–,–,0.388,0.331,0.406,0.22,0.144,0.747,0.735,0.59,0.558
